Measurements: the supplement of paper PMC13380429

Tests used:
Conditions in all cases: 72 h
HepG2 [1] = assay: drug sensitivity score (DSS) for viability; higher = more toxic; extreme values may be limits of the assay
Vero E6 [2] = assay: as above
Caco-2 [3] = assay: as above
Calu-3 [4] = assay: as above
U2OS [5] = assay: as above
HepG2 [6] = assay: cell viability relative to DMSO; higher = less toxic
Vero E6 [7] = assay: as above
Caco-2 [8] = assay: as above
Calu-3 [9] = assay: as above
U2OS [10] = assay: as above
HepG2 [11] = assay: relative viability EC50 (midpoint between 100% and the lowest measured viability); higher = less toxic
Vero E6 [12] = assay: as above
Caco-2 [13] = assay: as above
Calu-3 [14] = assay: as above
U2OS [15] = assay: as above

| Structure (SMILES) | drug sensitivity score (HepG2 [1]) | drug sensitivity score (Vero E6 [2]) | drug sensitivity score (Caco-2 [3]) | drug sensitivity score (Calu-3 [4]) | drug sensitivity score (U2OS [5]) | cell viability (HepG2 [6]; 1 nM) [%] | cell viability (HepG2 [6]; 10 nM) [%] | cell viability (HepG2 [6]; 100 nM) [%] | cell viability (HepG2 [6]; 1000 nM) [%] | cell viability (HepG2 [6]; 10000 nM) [%] | cell viability (Vero E6 [7]; 1 nM) [%] | cell viability (Vero E6 [7]; 10 nM) [%] | cell viability (Vero E6 [7]; 100 nM) [%] | cell viability (Vero E6 [7]; 1000 nM) [%] | cell viability (Vero E6 [7]; 10000 nM) [%] | cell viability (Caco-2 [8]; 1 nM) [%] | cell viability (Caco-2 [8]; 10 nM) [%] | cell viability (Caco-2 [8]; 100 nM) [%] | cell viability (Caco-2 [8]; 1000 nM) [%] | cell viability (Caco-2 [8]; 10000 nM) [%] | cell viability (Calu-3 [9]; 1 nM) [%] | cell viability (Calu-3 [9]; 10 nM) [%] | cell viability (Calu-3 [9]; 100 nM) [%] | cell viability (Calu-3 [9]; 1000 nM) [%] | cell viability (Calu-3 [9]; 10000 nM) [%] | cell viability (U2OS [10]; 1 nM) [%] | cell viability (U2OS [10]; 10 nM) [%] | cell viability (U2OS [10]; 100 nM) [%] | cell viability (U2OS [10]; 1000 nM) [%] | cell viability (U2OS [10]; 10000 nM) [%] | relative viability EC50 (HepG2 [11]) [µM] | relative viability EC50 (Vero E6 [12]) [µM] | relative viability EC50 (Caco-2 [13]) [µM] | relative viability EC50 (Calu-3 [14]) [µM] | relative viability EC50 (U2OS [15]) [µM] |
| --- | --- | --- | --- | --- | --- | --- | --- | --- | --- | --- | --- | --- | --- | --- | --- | --- | --- | --- | --- | --- | --- | --- | --- | --- | --- | --- | --- | --- | --- | --- | --- | --- | --- | --- | --- |
| CC(OC(=O)NCC1(CC(=O)O)CCCCC1)OC(=O)C(C)C (centres undefined) [gabapentin-enacarbil] | 0 | 0 | 0 | 0 | 0 | 101 | 93.8 | 94.7 | 90.1 | 89.4 | 83.4 | 97.8 | 84.2 | 107 | 106 | 105 | 87.2 | 106 | 110 | 104 | 103 | 96.3 | 106 | 104 | 89 | 101 | 96.5 | 102 | 94 | 102 | > 10 | > 10 | > 10 | > 10 | > 10 |
| Cc1cc(SCc2sc(-c3ccc(C(F)(F)F)cc3)nc2C)ccc1OCC(=O)O | 0 | 0 | 0 | 0 | 0 | 99 | 101 | 106 | 104 | 96.1 | 106 | 104 | 103 | 97.6 | 97.3 | 99.9 | 103 | 104 | 103 | 96.2 | 108 | 92.8 | 92.6 | 99.5 | 102 | 98.4 | 102 | 99.9 | 107 | 99 | > 10 | > 10 | > 10 | > 10 | > 10 |
| O=C(O)CCNC(=O)c1ccccc1 [betamipron] | 0 | 0 | 0 | 0 | 0 | 94.8 | 111 | 95.9 | 114 | 105 | 94.6 | 96.4 | 95.6 | 92.2 | 96.2 | 90.2 | 95.6 | 99.7 | 100 | 103 | 108 | 90.6 | 113 | 104 | 116 | 102 | 98 | 101 | 92.5 | 99.4 | > 10 | > 10 | > 10 | > 10 | > 10 |
| CCOc1ccccc1-n1c(C(C)N2CCN(C(=O)COc3ccc(Cl)cc3)CC2)nc2ccccc2c1=O (centres undefined) [erastin] | 6.9 | 5.1 | 3.5 | 7.8 | – | 96.6 | 102 | 109 | 89.8 | 5.5 | 96 | 99.4 | 95.8 | 97.2 | 15.5 | 103 | 94.8 | 96.9 | 97.1 | 43.4 | 113 | 97.4 | 109 | 81.3 | 13.5 | – | – | – | – | – | 2.27 | 2.92 | 2.76 | 1.67 | – |
| Cc1c(NC(=O)c2cc3c(s2)CCCC3)cccc1-c1cn(C)c(=O)c(Nc2ccc(C3C(=O)N(C)CCN3C)cc2)n1 (stereo in doubt) [GDC-0834] | 0 | 0 | 1.5 | 0 | 0 | 106 | 95.6 | 94.7 | 107 | 97.2 | 105 | 101 | 104 | 97.4 | 105 | 104 | 98.3 | 99.9 | 96.3 | 74.6 | 96.6 | 100 | 96.2 | 95.4 | 95.8 | 103 | 99.1 | 98.5 | 101 | 92.7 | > 10 | > 10 | – | > 10 | > 10 |
| Nc1cccc(CNC(=O)c2ccc(Oc3ccc(OCc4cccc(F)c4)cc3)nc2)c1 | 1.7 | 0 | 0.9 | 0.7 | 0 | 92.9 | 102 | 103 | 91.8 | 77.9 | 93.4 | 99.9 | 98.8 | 102 | 99.3 | 100 | 102 | 91.5 | 107 | 71.2 | 104 | 101 | 96.1 | 97.7 | 81.9 | 99 | 106 | 94.8 | 101 | 92.1 | > 10 | > 10 | – | > 10 | > 10 |
| O=C(Nc1ccc([N+](=O)[O-])cc1Cl)c1cc(Cl)ccc1O [niclosamide] | 5.3 | 4.2 | 5.6 | 0.6 | 1.2 | 104 | 99.4 | 109 | 98 | 9.9 | 101 | 99.7 | 102 | 102 | 20 | 101 | 102 | 95.3 | 93.7 | 17.6 | 106 | 98.4 | 92.2 | 91.3 | 86.2 | 101 | 104 | 97.2 | 103 | 68.9 | 3.01 | 3.34 | 2.54 | > 10 | – |
| COCCCOc1cc(C[C@@H](C[C@H](N)[C@@H](O)C[C@H](C(=O)NCC(C)(C)C(N)=O)C(C)C)C(C)C)ccc1OC [aliskiren-hemifumarate] | 0 | 0 | 3.7 | 0 | 0 | 111 | 103 | 103 | 87.5 | 100 | 93.8 | 95.3 | 91.8 | 93.9 | 93.2 | 84.8 | 81.9 | 70.4 | 89.1 | 100 | 88.8 | 101 | 96.5 | 96 | 88 | 97.2 | 102 | 101 | 103 | 93.7 | > 10 | > 10 | – | > 10 | > 10 |
| Cc1cc(CC(=O)O)n(C)c1C(=O)c1ccc(Cl)cc1 [zomepirac] | 0.1 | 0 | 7.3 | 0 | 0 | 88 | 84.9 | 84.7 | 101 | 91.6 | 105 | 94.6 | 104 | 94.4 | 93.7 | 94.4 | 97.7 | 75.3 | 74.4 | 77.8 | 94.7 | 99.6 | 97.4 | 94.3 | 103 | 96.6 | 101 | 92.9 | 97.7 | 99.6 | > 10 | > 10 | – | > 10 | > 10 |
| O=C1[C@H]2CCCC[C@H]2C(=O)N1CCCCN1CCN(c2nsc3ccccc23)CC1 [perospirone] | 2 | 0 | 3.4 | 0 | 0 | 97.4 | 88.9 | 89.1 | 89.1 | 86.1 | 104 | 98.7 | 102 | 101 | 107 | 86.7 | 87 | 91.8 | 92.9 | 65.9 | 94.1 | 101 | 99.3 | 98.7 | 89 | 96.2 | 99.7 | 104 | 92.9 | 92.8 | > 10 | > 10 | – | > 10 | > 10 |
| Cc1nc(C#Cc2ccnc(Cl)c2)c(C)n1-c1ccc(F)cc1 [basimglurant] | 1.4 | 0 | 3 | 0 | 0 | 104 | 99.5 | 102 | 95.3 | 77.4 | 106 | 101 | 96.9 | 102 | 91.3 | 101 | 95.2 | 101 | 90.5 | 66.5 | 88.4 | 90.6 | 92.2 | 92.4 | 95.8 | 91.4 | 96.1 | 101 | 91.9 | 93.2 | > 10 | > 10 | – | > 10 | > 10 |
| O[C@H]1[C@H](O)[C@@H](O)CN2CC[C@H](O)[C@H]12 [castanospermine] | 0 | 0 | 0 | 0 | – | 101 | 99.3 | 102 | 110 | 97.5 | 97.4 | 99.3 | 91 | 102 | 91.8 | 100 | 99 | 106 | 98.2 | 100 | 102 | 96.6 | 96.9 | 103 | 104 | – | – | – | – | – | > 10 | > 10 | > 10 | > 10 | – |
